Measured values as given in patent US10093706B2, “Dominant positive hnRNP-E1 polypeptide compositions and methods” (Indiana University Research and Technology Corporation, priority 2017, dated 2018).
Values joined by “and” are separate entries in the source; they are usually repeats but may differ in a detail not shown here. Identical values can stand only once.

Columns and labels:
[1] = biological target: hnRNP-E1 binding to folate receptor mRNA and hnRNP-E1 mRNA cis-element (Homo sapiens, UniProt Q15365); settings: physiologically relevant thiols; cited from earlier work
hnRNP-E1 mRNA = assay: In vitro translation of hnRNP-E1; type: biochemical, human; settings: agent added to translation mixture (4.1-mM ß-ME)
Description: (§1) In vitro transcription-translation was carried out using the Linked SP6/T7 In Vitro Transcription/Translation Kit (Roche Applied Science) after addition of one of various targeted DNAs—pSPT18-25-hnRNP-E1 DNA, or Pst1-linearized plasmid pSPT18-folate receptor-α, or HPV16 L2 DNA, (0.5 μg/reaction)—to the transcription mix as described. In other experiments, the capacity for perturbing the interaction of hnRNP-E1 with the 25-nt hnRNP-E1 cis-element during in vitro translation was assessed in the presence of either scrambled oligonucleotides (5′-[…]-3′ SEQ ID NO:20) or specific antisense oligonucleotides (5′-[…]-3′ SEQ ID NO:21) generated against the 25-nt hnRNP-E1 mRNA cis-element (GenScript USA, Piscataway, N.J.).

folate receptor-α mRNA = assay: In vitro translation of folate receptor-α; type: biochemical, human
Description: In vitro transcription-translation was carried out using the Linked SP6/T7 In Vitro Transcription/Translation Kit (Roche Applied Science) after addition of one of various targeted DNAs—pSPT18-25-hnRNP-E1 DNA, or Pst1-linearized plasmid pSPT18-folate receptor-α, or HPV16 L2 DNA, (0.5 μg/reaction)—to the transcription mix as described. In other experiments, the capacity for perturbing the interaction of hnRNP-E1 with the 25-nt hnRNP-E1 cis-element during in vitro translation was assessed in the presence of either scrambled oligonucleotides (5′-GCGTCGCTCGCTTCGCACGTGCGCC-3′ SEQ ID NO:20) or specific antisense oligonucleotides (5′-GGG AGC GAG CGG GCG GGA G-3′ SEQ ID NO:21) generated against the 25-nt hnRNP-E1 mRNA cis-element (GenScript USA, Piscataway, N.J.).

[2] = biological target: T1, RNA-protein complexes of GST-hnRNP-E1 and 25-nt hnRNP-E1 mRNA cis-element (Homo sapiens, UniProt Q15365, A205V); assay: Gel-shift assay: effect of thiols, iron and deferoxamine on RNA-protein complex formation; type: binding; settings: 100-μM thiol
T1 construct: made in house; host or cells: Escherichia coli BL21

[3] = tested on: newly synthesized [^35S]hnRNP-E1 in placental 1584-HF cells; assay: Biosynthetic rate of hnRNP-E1 after protein transfection into placental 1584-HF cells; type: cell-based, human; settings: protein transfected in placental 1584-HF cells
Description: (§2) Transfection of purified recombinant wild-type or various mutant hnRNP-E1 proteins into cells was achieved using the Xfect™ Protein Transfection Kit (Clontech, Mountain View, Calif.). Briefly, placental 1584-HF cells in 10-cm dishes at 70-80% confluence were transfected with 2.4-mL serum-free medium and Xfect Protein Transfection Reagent (1.2-mL) containing 20-μg of either wild-type hnRNP-E1-, or highest-affinity (HA)-hnRNP-E1(C293S)-mutant, or wild-type-like hnRNP-E1 (G292A)-mutant proteins and 2-μg of ß-galactosidase at 37° C. for 60-min. After cysteine-starvation for 4-h, an aliquot of cells were assessed for ß-galactosidase activity (to measure the efficiency of co-transfection of ß-galactosidase) and the remaining cells were pulsed with L-[^35S]cysteine (250-μCi) and assessed for specific [^35S]cysteine incorporated into folate receptor to determine the biosynthetic rate of this protein. A similar protocol was employed for analysis of newly synthesized [^35S]hnRNP-E1 using anti-hnRNP-E1 antiserum-coupled agarose and control agarose in order to derive values for specific [^35S]cysteine incorporated into hnRNP-E1 and thereby determine the biosynthetic rate of this protein.

[4] = biological target: [^35S]25-nt hnRNP-E1 mRNA cis-element; assay: Dissociation constant (KD) of GST-hnRNP-E1 or its mutant proteins for the 25-nt hnRNP-E1 mRNA cis-element; type: binding, human; settings: L-Homocysteine 0 μM
Description: (§3) Methods for testing the ability of an engineered hnRNP-E1 variant polypeptide to bind to an RNA comprising the sequence of SEQ ID NO:6 are known in the art. Such methods include, but are not limited to, RNA electrophoretic mobility shift assays, as exemplified herein, RNA pull-down assays, and oligonucleotide-targeted RNase H protection assays. Such assays are conducted in the presence or absence of homocysteine to determine the RNA-binding dependence of any particular hnRNP-E1 polypeptide tested on the presence of homocysteine. […] Additional methods are outline in Tang et al. (“Incrimination of heterogeneous nuclear ribonucleoprotein E1 (hnRNP-E1) as a candidate sensor of physiological folate deficiency.” J Biol Chem. 2011; 286(45):39100-39115), which is incorporated herein in its entirety.
(§4) Specific binding was determined by subtracting values of non-specific binding with GST from those of total binding with GST-hnRNP-E1; (however, in Table 1 and FIG. 6G, non-specific binding using bovine serum albumin (BSA) was subtracted from total binding to GST-hnRNP-E1 to determine specific binding). The KD was calculated from a Scatchard plot using GraphPad Prism 6 from GraphPad Software (San Diego, Calif.), as previously described in the art.

HPV16 L2 RNA = assay: In vitro translation of HPV16 L2 protein; type: biochemical, Human Papillomavirus type 16; settings: after quenching excess ß-ME by NEM (2 mM)
Description: as §1
(§5) Construction of plasmids for generation of HPV16 L2 RNA, gel-shift and in vitro translation studies were carried as described with additional treatments shown in FIGS. 10A-10D

[5] = biological target: [^35S]18-nt folate receptor-α mRNA cis-element; assay: Dissociation constant (KD) of GST-hnRNP-E1 or its mutant proteins for the 18-nt folate receptor-α mRNA cis-element; type: binding, human; settings: L-Homocysteine 0 μM; listed as wild-type-like hnRNP-E1(G292A)-mutant
Description: as §3, §4

[6] = tested on: newly synthesized [^35S]folate receptors in placental 1584-HF cells; assay: Biosynthetic rate of folate receptors after protein transfection into placental 1584-HF cells; type: cell-based, human; settings: protein transfected in placental 1584-HF cells
Description: as §2

[7] = tested on: 25-nt hnRNP-E1 mRNA cis-element; assay: Gel-shift assay of hnRNP-E1 proteins with 25-nt hnRNP-E1 mRNA cis-element; type: binding, human; settings: absence of L-homocysteine
Description: (§6) Parenthetically, there was no significant difference in RNA binding to GST-hnRNP-E1 by use of either 32P-RNA probes or 35S-labeled RNA probes used. Other studies assessed the effect of iron(II) or iron(III) on homocysteine-induced RNA-protein interactions.
Recombinant GST-plasmid DNA, pGST-hnRNP-E1, pGST-hnRNP-E2, and related engineered variant plasmids were transformed into BL21 Escherichia coli from Novagen (Madison, Wis.). After induction by 1 mM isopropyl-1-thio-ß-D-galactopyranoside, the GST-hnRNP-E1 and engineered variant fusion proteins were individually purified using the B-PER GST Fusion Protein Purification Kit (Pierce, Rockford, Ill.). The eluted GST fusion proteins were dialyzed against 500 volumes of buffer to remove excess reducing reagents (such as dithiothreitol (DTT)) and assayed by SDS-PAGE and Western blots using anti-peptide hnRNP-E1 antiserum. Gel shift assays with target RNA were carried out as described.

[8] = tested on: newly synthesized [^35S]hnRNP-E1 in placental 1584-HF cells; assay: Biosynthetic rate of hnRNP-E1 after oligonucleotide transfection into placental 1584-HF cells; type: cell-based, human; settings: oligonucleotide transfected into placental 1584-HF cells
Description: On the day before transfection, placental 1584-HF cells were trypsinized, counted, and plated in 6-well plates at 2×10^5 cells per well in 2.5-mL of MEM-HF medium, so that cells would be 70-80% confluent after overnight culture. Cells were then transfected with either wild-type, or scrambled DNA, or antisense DNA to 25-nt hnRNP-E1 cis-element using Lipofectamine 2000 DNA transfection reagent and the manufacturer's protocol. One well of cells was trypsinized and harvested on day-3 (2 days after transfection) as a control. Cells in the remaining 5 wells were starved of cysteine using cysteine-free MEM-HF for 4-h following which the rate of biosynthesis of hnRNP-E1 protein was determined in transfected cells by specifically immunoprecipitating and quantifying newly synthesized [^35S]hnRNP-E1.

[9] = biological target: T1, RNA-protein complexes of GST-hnRNP-E1 and 25-nt hnRNP-E1 mRNA cis-element; assay: Gel-shift assay: effect of thiols, iron and deferoxamine on RNA-protein complex formation; type: binding; settings: fixed L-homocysteine
Description: Other studies assessed the effect of iron(II) or iron(III) on homocysteine-induced RNA-protein interactions.
Studies were conducted to evaluate the effect of iron(II) (as ferrous sulfate heptahydrate) or iron(III) (as ferric chloride hexahydrate) in modulating RNA-protein interactions during gel-shift assays in either the absence or presence of 10-mM glutathione. The iron preparation, either alone or with 50-μM of deferoxamine (DFO) to define the specificity of iron(II), was incubated first with glutathione and hnRNP-E1 before addition of other components of the reaction mixture. […] The samples were analyzed by PAGE and autoradiography overnight followed by densitometric analysis of the signals representing RNA-protein complexes.

[10] = tested on: HPV16 L2 mRNA cis-element; assay: Gel-shift assay of hnRNP-E1 proteins with HPV16 L2 mRNA; type: binding, Human Papillomavirus type 16; settings: absence of reducing agents; versus wild-type and G292A
Description: as §6, §5

[11] = listed as wild-type-like hnRNP-E1(G292A)-mutant

T1 sequence (Q15365 whole entry A205V, one chain of several): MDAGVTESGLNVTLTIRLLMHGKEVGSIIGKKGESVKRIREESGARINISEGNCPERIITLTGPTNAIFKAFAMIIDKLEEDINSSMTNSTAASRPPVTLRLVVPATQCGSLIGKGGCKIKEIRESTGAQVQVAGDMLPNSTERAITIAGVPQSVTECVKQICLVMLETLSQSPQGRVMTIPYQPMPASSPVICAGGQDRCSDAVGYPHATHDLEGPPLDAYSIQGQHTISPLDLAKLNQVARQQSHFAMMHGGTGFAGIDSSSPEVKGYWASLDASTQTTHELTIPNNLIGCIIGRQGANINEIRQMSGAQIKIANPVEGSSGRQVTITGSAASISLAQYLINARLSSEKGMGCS
Sequence of hnRNP-E1 binding to folate receptor mRNA and hnRNP-E1 mRNA cis-element (Q15365 whole entry): as the sequence (Q15365 whole entry A205V, one chain of several) above, with V205A counted along it

## NC1CCSC1=O (stereo not shown) [homocysteine thiolactone]
[1]
  hnRNP-E1 activation and mRNA-binding: far less

## NC(CCS)C(=O)O (racemic) [DL-homocysteine]
[1]
  hnRNP-E1 activation and mRNA-binding: far less

## CCN1C(=O)C=CC1=O [N-ethylmaleimide]
hnRNP-E1 mRNA
  effect on in vitro translation of hnRNP-E1: progressive reduction in the amount of hnRNP-E1 translated
Folate receptor-α mRNA; increasing NEM
  basal translation of folate receptor-α mRNA in vitro: diminished in a dose-dependent manner

## CSCC[C@H](N)C(=O)O [methionine]
[2]
  RNA-protein signals relative to L-homocysteine: no detectable signals
[1]
  hnRNP-E1 activation and mRNA-binding: did not have any effect

## GST-hnRNP-E1(G292A): control mutant, glycine-292 mutated to alanine; behaved similar to wild-type hnRNP-E1
[3]
  [^35S]cysteine-hnRNP-E1: 1.03 ± 0.21 b fmol/mg protein/h
[3]; [11]
  [^35S]cysteine-hnRNP-E1: 1.03 fmol/mg protein/h
[4]
  Kd: 2.02 nM
HPV16 L2 RNA
  HPV16 L2 protein signal: insignificant reduction of HPV16 L2 protein signal
[5]
  Kd: 1.57 nM and 1.5 nM
[6]
  [^35S]cysteine-folate receptor: 1.79 ± 0.13 b fmol/mg protein/h
[6]; [11]
  [^35S]cysteine-folate receptor: 1.79 fmol/mg protein/h
[7]
  RNA-protein gel-shift signal: no RNA-protein gel-shift signals

## N[C@@H](CS)C(=O)O [L-Cysteine, L-cysteine]
[2]
  RNA-protein signals relative to L-homocysteine: far weaker
[1]
  hnRNP-E1 activation and mRNA-binding: far less

## Scrambled: scrambled oligonucleotides (5′-GCGTCGCTCGCTTCGCACGTGCGCC-3′ SEQ ID NO:20) (GCGTCGCTCGCTTCGCACGTGCGCC; chemistry not given here)
hnRNP-E1 mRNA
  effect on in vitro translation of hnRNP-E1: failed to quench the translation of hnRNP-E1
[8]
  [^35S]cysteine-hnRNP-E1 protein: 1.01 ± 0.03 a fmol/mg protein/h
[8]; listed as scrambled-oligonucleotides
  [^35S]cysteine-hnRNP-E1 protein: 1.0 fmol/mg protein/h

## Antisense: antisense oligonucleotides (5′-GGG AGC GAG CGG GCG GGA G-3′ SEQ ID NO:21) against the 25-nt hnRNP-E1 mRNA cis-element (antisense GGGAGCGAGCGGGCGGGAG; chemistry not given here)
hnRNP-E1 mRNA
  effect on in vitro translation of hnRNP-E1: dose-dependent inhibition of translation of hnRNP-E1
[8]
  [^35S]cysteine-hnRNP-E1 protein: 0.62 ± 0.02 b fmol/mg protein/h
[8]; listed as antisense oligonucleotides
  [^35S]cysteine-hnRNP-E1 protein: 0.62 fmol/mg protein/h

## N[C@H](CCS)C(=O)O [D-homocysteine]
[1]
  hnRNP-E1 activation and mRNA-binding: did not have any effect

## O[C@H](CS)[C@H](O)CS (racemic) [dithiothreitol]
[2]
  RNA-protein signals relative to L-homocysteine: much stronger RNA-protein signals

## O.O.O.O.O.O.[Cl-].[Cl-].[Cl-].[Fe+3] [iron(III), ferric chloride hexahydrate]
[9]; 10-mM glutathione
  effect on RNA-complex formation: comparable dose-dependent reduction in RNA-complex formation
[9]; no glutathione
  effect on formation of RNA-protein complexes: no such influence

## N[C@@H](CCC(=O)N[C@@H](CS)C(=O)NCC(=O)O)C(=O)O [glutathione]
[2]
  RNA-protein signals relative to L-homocysteine: no detectable signals
[1]
  hnRNP-E1 activation and mRNA-binding: far less

## hnRNP-E1(C54S)-mutant: hnRNP-E1 with cysteine-54 replaced by serine (SEQ ID NO:3)
Folate receptor-α mRNA; presence of 2-mM NEM
  translation of folate receptor-α: maximally increased
[10]
  interaction with HPV16 L2 mRNA on gel-shift assays: greater interaction

## OCCS [ß-ME, ß-mercaptoethanol]
[2]
  RNA-protein signals relative to L-homocysteine: much stronger RNA-protein signals
